# Measurements as given in patent US4490370A, “Naphthylglycyl cephalosporin derivatives” (priority 1983, dated 1984).
# Like-named read-outs stand apart in the source and are kept apart here.
# Key:
# [1] = test system: Staph. aureus; test: Agar dilution MIC, Staph. aureus; type: cell-based; conditions: Staphylococcus aureus, read-out: MIC
# Excerpt: (§1) The following Tables present typical minimum inhibitory concentrations (MIC's) in μg/ml for the compounds when evaluated against the indicated microorganisms.
# [2] = test system: Staph. epi; test: Agar dilution MIC, Staph. epi; type: cell-based; conditions: read-out: MIC
# Excerpt: as §1
# [3] = test system: Strep. A; test: Agar dilution MIC, Strep. A; type: cell-based; conditions: Table I, strain C203; read-out: MIC
# Excerpt: (§2) A typical and preferred compound provided by this invention is 7-(2-naphthylglycylamido)-3-methyl-3-cephem-4-carboxylic acid, the compound of Example 3. The antibacterial activity of this compound and several others of the invention has been determined in standard in vitro agar dilution assays against a variety of gram positive microorganisms. The following Tables present typical minimum inhibitory concentrations (MIC's) in μg/ml for the compounds when evaluated against the indicated microorganisms. MIC's for several known compounds are also presented for comparison.
# [4] = test system: Strep. PN; test: Agar dilution MIC, Strep. PN; type: cell-based; conditions: Table I, strain PARK; read-out: MIC
# Excerpt: as §1
# [5] = test system: H. influ.; test: Agar dilution MIC, H. influenza; type: cell-based; conditions: Table III, strain 102; read-out: MIC
# Excerpt: as §1
# [6] = test system: Klebsiella; test: Agar dilution MIC, Klebsiella; type: cell-based; conditions: Klebsiella; Table I, strain X26; read-out: MIC
# Excerpt: as §2
# [7] = test system: B. Fragilis; test: Expanded spectrum MIC, B. Fragilis; type: cell-based; conditions: Bacteroides fragilis, Table III, read-out: MIC
# Excerpt: as §2
# [8] = test system: P. magnus; test: Susceptibility of anaerobic cocci, agar-dilution, 24 hour MIC; type: cell-based; conditions: Finegoldia magna
# Excerpt: as §2
# (§3) Susceptibility of Anaerobic Cocci
# (§4) Isolates by the Agar-Dilution
# (§5) Method-24 hour MIC's (μg/ml)
# [9] = test system: P. prevoti; test: as above; type: cell-based; conditions: isolate 1293
# Excerpt: as §2, §3, §4, §5
# [10] = test system: Peptococcus Asaccharolyticus; test: as above; type: cell-based; conditions: Peptoniphilus asaccharolyticus, isolate 1344
# Excerpt: as §2, §3, §4, §5
# [11] = test system: Peptococcus Constellatus; test: as above; type: cell-based; conditions: Streptococcus constellatus, isolate 1468
# Excerpt: as §2, §3, §4, §5
# [12] = test system: Peptostreptococcus anaerobius; test: as above; type: cell-based
# Excerpt: as §2, §3, §4, §5
# [13] = test system: Peptostreptococcus intermedius; test: as above; type: cell-based
# Excerpt: as §2, §3, §4, §5
# [14] = test system: Bacteroides fragilis; test: Susceptibility of anaerobes, agar-dilution, 24 hour MIC; type: cell-based
# [15] = test system: Propionibacterum acnes; test: as above; type: cell-based
# Excerpt: as §2, §3, §4, §5
# [16] = Plasma concentration after intravenous dose in rats; type: in vivo; conditions: rat, intravenous 20 mg/kg
# Description: For example, when 7-(2-naphthylglycylamido)-3-methyl-3-cephem-4-carboxylic acid was administered to rats at an intravenous dose of 20 mg/kg, the plasma concentration after one hour was 18.6 μg/ml; after four hours, 14.1 μg/ml; and after twenty-four hours, the plasm level was still measured as 1.96 μg/ml.
# [17] = Oral absorption and blood levels in rodents; type: in vivo
# [18] = test system: β-lactamase (organism 265A); test: Stability to β-lactamases, 265A; type: biochemical; conditions: lower numbers mean greater stability
# [19] = test system: β-lactamase (organism PS185); test: Stability to β-lactamases, PS185; type: biochemical; conditions: lower numbers mean greater stability
# [20] = test system: β-lactamase (TEM); test: Stability to β-lactamases, TEM; type: biochemical; conditions: lower numbers mean greater stability
# [21] = test system: β-lactamase (organism 1082E); test: Stability to β-lactamases, 1082E; type: biochemical; conditions: lower numbers mean greater stability
# [22] = test system: β-lactamase (organism 1313G); test: Stability to β-lactamases, 1313G; type: biochemical; conditions: lower numbers mean greater stability
smiles,measurement,setting,value
"CC1=C(C(=O)O)N2C(=O)C(NC(=O)[C@H](N)c3ccc4ccccc4c3)C2SC1 (stereo partly drawn) [Example 3, D-7-(2-naphthylglycylamido)-3-methyl-3-cephem-4-carboxylic acid tetrahydrate]",MIC,"[1]; Table I, strain V41",8 µg/mL
same,MIC,"[1]; Table I, strain X1.1",0.5 µg/mL
same,MIC,"[1]; Table I, strain X400",64 µg/mL
same,MIC,"[1]; Table II, strain S224",0.5 µg/mL
same,MIC,"[1]; Table II, strain S225",0.5 µg/mL
same,MIC,"[1]; Table II, strain S226",1 µg/mL
same,MIC,"[1]; Table II, strain S227",1 µg/mL
same,MIC,"[1]; Table II, strain S228",0.5 µg/mL
same,MIC,"[1]; Table II, strain S229",1 µg/mL
same,MIC,"[1]; Table II, strain S230",0.5 µg/mL
same,MIC,"[1]; Table II, strain S231",0.5 µg/mL
same,MIC,"[1]; Table II, strain S234",1 µg/mL
same,MIC,"[1]; Table II, strain S237",1 µg/mL
same,MIC,"[1]; Table II, strain S238",1 µg/mL
same,MIC,"[1]; Table II, strain S239",1 µg/mL
same,MIC,"[1]; Table III expanded spectrum, strain 8725",0.25 µg/mL
same,MIC,"[1]; Table III, strain 8438",0.25 µg/mL
same,MIC,"[1]; Table III, strain 8787",0.25 µg/mL
same,MIC,"[1]; Table III, strain 9050",0.5 µg/mL
same,MIC,"[1]; Table III, strain 9136",0.25 µg/mL
same,MIC,"[1]; Table III, strain 9290",1 µg/mL
same,MIC,"[1]; Table III, strain 9767",1 µg/mL
same,MIC,"[2]; Table I, strain 222",0.5 µg/mL
same,MIC,"[2]; Table I, strain EPI1",1 µg/mL
same,MIC,"[2]; Table II expanded spectrum, strain EPI1",8 µg/mL
same,MIC,"[2]; Table II, strain 219",0.5 µg/mL
same,MIC,"[2]; Table II, strain 269",2 µg/mL
same,MIC,"[2]; Table II, strain 270",4 µg/mL
same,MIC,"[2]; Table II, strain 285",2 µg/mL
same,MIC,"[2]; Table II, strain 286",1 µg/mL
same,MIC,[3],0.5 µg/mL
same,MIC,[4],0.5 µg/mL
same,MIC,[5],32 µg/mL
same,MIC,[6],2 µg/mL
same,MIC,[7]; strain 180-821,2 µg/mL
same,MIC,[7]; strain 10668,32 µg/mL
same,MIC,[7]; strain 10683,32 µg/mL
same,MIC,[7]; strain 10695,4 µg/mL
same,MIC,[7]; strain 10750,16 µg/mL
same,MIC,[7]; strain 10774,16 µg/mL
same,MIC,[7]; strain 10817,2 µg/mL
same,MIC,[7]; strain 10837,16 µg/mL
same,MIC,[7]; strain 107266,16 µg/mL
same,MIC,[7]; strain 107268,8 µg/mL
same,MIC,[8]; isolate 1401,0.25 µg/mL
same,MIC,[8]; isolate 1477,0.5 µg/mL
same,MIC,[9],0.5 µg/mL
same,MIC,[10],≤ 0.125 µg/mL
same,MIC,[11],0.25 µg/mL
same,MIC,[12]; isolate 8,≤ 0.125 µg/mL
same,MIC,[12]; isolate 52,0.25 µg/mL
same,MIC,[12]; isolate 1477,≤ 0.125 µg/mL
same,MIC,[13]; isolate 1264,1 µg/mL
same,MIC,[13]; isolate 1524,1 µg/mL
same,MIC,[13]; isolate 1624,1 µg/mL
same,MIC,[14]; isolate 200,32 µg/mL
same,MIC,[14]; isolate 206,16 µg/mL
same,MIC,[14]; isolate 3625,16 µg/mL
same,MIC,[14]; isolate 7371A,16 µg/mL
same,MIC,[14]; isolate 19671,> 64 µg/mL
same,MIC,[14]; isolate 19681,16 µg/mL
same,MIC,[15]; isolate 44,4 µg/mL
same,MIC,[15]; isolate 79,8 µg/mL
same,MIC,[15]; isolate 101,8 µg/mL
same,MIC,[15]; isolate 104,8 µg/mL
same,MIC,[15]; isolate 105,4 µg/mL
same,MIC,[15]; isolate 5191,0.25 µg/mL
same,MIC,[15]; isolate 5227,0.25 µg/mL
same,MIC,[15]; isolate 5228,8 µg/mL
same,MIC,[15]; isolate 5229,8 µg/mL
same,MIC,[15]; isolate 5246,8 µg/mL
same,concentration at 1 h,"[16]; 1 hour, read-out: plasma concentration after one hour",18600 ng/mL
same,concentration at 4 h,"[16]; 4 hours, read-out: plasma concentration after four hours",14100 ng/mL
same,concentration at 24 h,"[16]; 24 hours, read-out: plasma level after twenty-four hours",1960 ng/mL
same,blood levels compared with cefaclor and cephalexin,[17],higher and longer blood levels than cefaclor and cephalexin
same,oral absorption,[17]; oral,efficiently orally absorbed
same,Stability to β-lactamases,[18],50
same,Stability to β-lactamases,[19],25
same,Stability to β-lactamases,[20],3
same,Stability to β-lactamases,[21],26
same,Stability to β-lactamases,[22],256
